Measured values reported in patent publication US20250115576A1, “THERAPEUTIC COMPOUNDS AND METHODS OF USE THEREOF” (Genentech, Inc., priority 2018, published 2025).
Structures can show the parent of a compound that is named as a salt.

Experiments:
[1] = biological target: T1, hNav1.7 (Homo sapiens (Human), UniProt Q15858); assay: Tritiated compound binding to membranes from cells expressing hNav1.7 and the β1 subunit (Nav1.7 LBA); details: competitive binding vs [3H]compound, membranes with hNav1.7 and β1 subunit; read-out: Nav1.7 LBA EVO IC50
Procedure: Example 64a. Tritiated Compound Binding to Membranes Isolated from Cells that Heterologously Express hNav1.7 and the β 1 Subunit
Preparation of membranes containing recombinantly expressed sodium channels: Frozen recombinant cell pellets are thawed on ice and diluted to 4 times the cell pellet weight with ice cold 50 mM Tris HCl, pH 7.4 buffer. The cell suspensions are homogenized on ice using a motorized glass dounce homogeniser. Homogenates are further diluted 8.4 times with ice cold 50 mM Tris HCl, pH 7.4 buffer and then centrifuged at 200×g at 4° C. for 15 minutes. The supernatants are collected and centrifuged at 10000×g at 4° C. for 50 min. The pellets are then re-suspended in 100 mM NaCl, 20 mM Tris HCl, pH 7.4 buffer containing 1% v/v protease inhibitors (Calbiochem) and re-homogenized on ice. The homogenized membranes are then processed through a syringe equipped with a 26 gauge needle. Protein concentrations arer determined by Bradford Assay and the membranes are stored at −80° C.
Radioligand Binding Studies: Saturation experiments. A competitive NaV1.7 inhibitor having a methyl group is tritiated. Three tritiums are incorporated in place of methyl hydrogens to generate [^3H]compound. Binding of this radioligand is performed in 5 mL borosilicate glass test tubes at room temperature. Binding is initiated by adding membranes to increasing concentrations of [^3H]compound in 100 mM NaCl, 20 mM Tris HCl, pH 7.4 buffer containing 0.01% w/v bovine serum albumin (BSA) for 18 h. Non-specific binding is determined in the presence of 1 μM unlabeled compound. After 18 h, the reactants are filtered through GF/C glass fiber filters presoaked in 0.5% w/v polyethylene imine. […] [^3H]compound bound to filters is quantified by liquid scintillation counting.
Competitive binding experiments: Binding reactions are performed in 96-well polypropylene plates at room temperature for 18 h. […] Bound radioactivity is determined by liquid scintillation counting.
Data Analysis: For saturation experiments, non-specific binding is subtracted from total binding to provide specific binding and these values are recalculated in terms of pmol ligand bound per mg protein. Saturation curves are constructed and dissociation constants are calculated using the single site ligand binding model: Beq=(Bmax*X)/(X+Kd), where Beq is the amount of ligand bound at equilibrium, Bmax is the maximum receptor density, Kd is the dissociation constant for the ligand, and X is the free ligand concentration. For competition studies percent inhibition is determined and IC50 values are calculated using a 4 parameter logistic model (% inhibition=(A+((B−A)/(1+((x/C)^D)))) using XLfit, where A and B are the maximal and minimum inhibition respectively, C is the IC50 concentration and D is the (Hill) slope. […]
Target sequence in this assay (Q15858 whole entry, looked up): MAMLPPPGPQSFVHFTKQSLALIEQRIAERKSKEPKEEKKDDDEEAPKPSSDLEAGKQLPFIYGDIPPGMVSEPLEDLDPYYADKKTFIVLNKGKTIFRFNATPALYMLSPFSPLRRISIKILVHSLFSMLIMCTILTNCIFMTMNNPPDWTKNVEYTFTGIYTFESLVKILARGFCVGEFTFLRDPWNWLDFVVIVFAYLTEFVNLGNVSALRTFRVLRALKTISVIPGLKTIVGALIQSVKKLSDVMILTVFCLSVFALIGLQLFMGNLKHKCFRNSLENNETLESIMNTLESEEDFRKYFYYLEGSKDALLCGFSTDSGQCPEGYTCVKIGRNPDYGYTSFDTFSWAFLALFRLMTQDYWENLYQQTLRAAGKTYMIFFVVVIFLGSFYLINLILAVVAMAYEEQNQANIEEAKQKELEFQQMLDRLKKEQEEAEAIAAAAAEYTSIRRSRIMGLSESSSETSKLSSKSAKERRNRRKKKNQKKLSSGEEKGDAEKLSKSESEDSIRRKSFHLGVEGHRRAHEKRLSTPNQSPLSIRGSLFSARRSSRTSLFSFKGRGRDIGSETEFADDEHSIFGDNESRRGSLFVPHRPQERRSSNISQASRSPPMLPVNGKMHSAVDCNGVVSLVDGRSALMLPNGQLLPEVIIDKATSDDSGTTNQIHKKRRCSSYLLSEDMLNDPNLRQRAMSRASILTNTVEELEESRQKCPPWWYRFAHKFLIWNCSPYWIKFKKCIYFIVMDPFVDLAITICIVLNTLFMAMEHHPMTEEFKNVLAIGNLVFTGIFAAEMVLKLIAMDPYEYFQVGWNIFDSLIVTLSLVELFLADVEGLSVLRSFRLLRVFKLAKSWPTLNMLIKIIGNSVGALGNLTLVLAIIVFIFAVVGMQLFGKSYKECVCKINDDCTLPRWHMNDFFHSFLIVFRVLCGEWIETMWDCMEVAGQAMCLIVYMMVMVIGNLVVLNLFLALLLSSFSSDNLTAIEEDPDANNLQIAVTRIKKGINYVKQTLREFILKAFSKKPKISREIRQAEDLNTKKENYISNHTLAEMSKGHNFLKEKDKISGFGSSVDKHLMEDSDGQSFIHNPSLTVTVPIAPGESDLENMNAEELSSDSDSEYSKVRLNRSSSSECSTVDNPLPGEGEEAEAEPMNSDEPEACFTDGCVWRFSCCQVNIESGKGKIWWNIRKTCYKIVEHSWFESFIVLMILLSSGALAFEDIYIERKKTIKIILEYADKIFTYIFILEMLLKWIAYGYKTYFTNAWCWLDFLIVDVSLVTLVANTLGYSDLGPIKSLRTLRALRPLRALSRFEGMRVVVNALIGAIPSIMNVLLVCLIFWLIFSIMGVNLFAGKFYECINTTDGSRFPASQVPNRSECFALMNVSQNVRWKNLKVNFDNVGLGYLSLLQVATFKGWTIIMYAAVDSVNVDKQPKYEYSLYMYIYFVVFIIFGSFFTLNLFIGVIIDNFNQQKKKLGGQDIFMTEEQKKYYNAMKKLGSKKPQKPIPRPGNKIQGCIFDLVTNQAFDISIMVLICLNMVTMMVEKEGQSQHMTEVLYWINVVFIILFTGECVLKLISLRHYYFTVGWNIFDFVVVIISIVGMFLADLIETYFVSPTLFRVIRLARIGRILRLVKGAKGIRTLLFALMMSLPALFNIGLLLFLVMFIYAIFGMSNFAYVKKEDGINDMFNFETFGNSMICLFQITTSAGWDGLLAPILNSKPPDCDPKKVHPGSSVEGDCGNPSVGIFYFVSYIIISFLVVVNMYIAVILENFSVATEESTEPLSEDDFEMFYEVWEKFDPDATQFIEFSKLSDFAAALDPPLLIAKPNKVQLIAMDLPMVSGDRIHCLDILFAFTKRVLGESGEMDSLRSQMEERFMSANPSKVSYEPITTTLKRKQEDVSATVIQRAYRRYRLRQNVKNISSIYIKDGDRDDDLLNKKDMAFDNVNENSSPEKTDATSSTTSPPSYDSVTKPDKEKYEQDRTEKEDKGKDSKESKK
Target sequence in this assay (Q07699 whole entry partner, looked up): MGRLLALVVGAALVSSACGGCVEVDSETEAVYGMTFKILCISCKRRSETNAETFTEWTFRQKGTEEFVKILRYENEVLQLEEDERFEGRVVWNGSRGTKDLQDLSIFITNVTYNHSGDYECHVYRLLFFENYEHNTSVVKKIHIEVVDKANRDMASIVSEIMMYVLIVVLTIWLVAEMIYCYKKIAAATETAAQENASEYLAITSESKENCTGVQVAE

[2] = biological target: T1, hNav1.7; assay: Patch voltage clamp electrophysiology (EP), Syncropatch 384PE, CHO cells stably expressing Nav1.7; type: cell-based; details: holding potential −50 mV, 7.5 min compound incubation, read-out: EP_SP hNav1.7 EVO IC50
Description: Example 64c. Electrophysiological Assay (EP) (In Vitro Assay)
Patch voltage clamp electrophysiology allows for the direct measurement and quantification of block of voltage-gated sodium channels (NaV's), and allows the determination of the time- and voltage-dependence of block which has been interpreted as differential binding to the resting, open, and inactivated states of the sodium channel (Hille, B., Journal of General Physiology (1977), 69: 497-515).
The following voltage clamp electrophysiology studies are performed on representative compounds using cells heterologously expressing Nav1.7 or Nav1.5 channels. cDNAs for Nav1.7 (NM_002977) and Nav1.5 (AC137587) are stably expressed in Chinese Hamstr Ovary (CHO) cells and CHL (Chinese Hamster Lung) cells respectively. Sodium currents are measured in the whole-cell configuration using Syncropatch 384PE (Nanlon Technologies, Germany). 1NPC®-384 chips with custom medium resistance and single hole mode are used. Internal solution consists of (in mM): […], 10 CsCl, 20 EGTA, and 10 Hepes (pH adjusted to 7.2); and external solution contains (in mM): 60 NMDG, 80 NaCl, 4 KCl, 1 MgCl2, 2 CaCl2, 2 D-Glucose monohydrate, 10 Hepes (pH adjusted to 7.4 with NaOH).
After system flushing, testing compounds are dissolved in external solution containing 0.1% Pluronic F-127. The chip is moved into the measuring head and the instrument primes the chip with external and internal solutions. 10 μl cells are added to the chip from a cell hotel, and a negative pressure of −50 mBar is applied to form a seal. Following treatment with seal enhancer solution and wash-off with external solution, negative pressure of −250 mbar is applied for 1 second to achieve the whole-cell configuration, followed by three washing steps in external solution. 20 μl of compounds is added to 40 μl in each well (1:3 dilution of compounds), and after mixing, 20 μl is removed so the volume is retained at 40 ul. After approximately 13 minutes recordings, 20 μl/well of 2 uM TTX, or 333 uM Tetracaine (for […]) is added to achieve full block.
For voltage protocol, an holding potential of −50 mV is applied during the whole experiment. A depolarizing step is applied to −10 mV for 10 ms, followed by a hyperpolarization step to −150 mV for 20 ms to allow channel recovery from inactivation. A second depolarizing step is applied from −150 mV to −10 mV for 10 ms, where currents are measured to derive blocking effects of compounds. Inhibition is determined based on 7.5 min of compound incubation.
Target sequence in this assay (Q15858 other isoform, or with tags, fused parts or gaps): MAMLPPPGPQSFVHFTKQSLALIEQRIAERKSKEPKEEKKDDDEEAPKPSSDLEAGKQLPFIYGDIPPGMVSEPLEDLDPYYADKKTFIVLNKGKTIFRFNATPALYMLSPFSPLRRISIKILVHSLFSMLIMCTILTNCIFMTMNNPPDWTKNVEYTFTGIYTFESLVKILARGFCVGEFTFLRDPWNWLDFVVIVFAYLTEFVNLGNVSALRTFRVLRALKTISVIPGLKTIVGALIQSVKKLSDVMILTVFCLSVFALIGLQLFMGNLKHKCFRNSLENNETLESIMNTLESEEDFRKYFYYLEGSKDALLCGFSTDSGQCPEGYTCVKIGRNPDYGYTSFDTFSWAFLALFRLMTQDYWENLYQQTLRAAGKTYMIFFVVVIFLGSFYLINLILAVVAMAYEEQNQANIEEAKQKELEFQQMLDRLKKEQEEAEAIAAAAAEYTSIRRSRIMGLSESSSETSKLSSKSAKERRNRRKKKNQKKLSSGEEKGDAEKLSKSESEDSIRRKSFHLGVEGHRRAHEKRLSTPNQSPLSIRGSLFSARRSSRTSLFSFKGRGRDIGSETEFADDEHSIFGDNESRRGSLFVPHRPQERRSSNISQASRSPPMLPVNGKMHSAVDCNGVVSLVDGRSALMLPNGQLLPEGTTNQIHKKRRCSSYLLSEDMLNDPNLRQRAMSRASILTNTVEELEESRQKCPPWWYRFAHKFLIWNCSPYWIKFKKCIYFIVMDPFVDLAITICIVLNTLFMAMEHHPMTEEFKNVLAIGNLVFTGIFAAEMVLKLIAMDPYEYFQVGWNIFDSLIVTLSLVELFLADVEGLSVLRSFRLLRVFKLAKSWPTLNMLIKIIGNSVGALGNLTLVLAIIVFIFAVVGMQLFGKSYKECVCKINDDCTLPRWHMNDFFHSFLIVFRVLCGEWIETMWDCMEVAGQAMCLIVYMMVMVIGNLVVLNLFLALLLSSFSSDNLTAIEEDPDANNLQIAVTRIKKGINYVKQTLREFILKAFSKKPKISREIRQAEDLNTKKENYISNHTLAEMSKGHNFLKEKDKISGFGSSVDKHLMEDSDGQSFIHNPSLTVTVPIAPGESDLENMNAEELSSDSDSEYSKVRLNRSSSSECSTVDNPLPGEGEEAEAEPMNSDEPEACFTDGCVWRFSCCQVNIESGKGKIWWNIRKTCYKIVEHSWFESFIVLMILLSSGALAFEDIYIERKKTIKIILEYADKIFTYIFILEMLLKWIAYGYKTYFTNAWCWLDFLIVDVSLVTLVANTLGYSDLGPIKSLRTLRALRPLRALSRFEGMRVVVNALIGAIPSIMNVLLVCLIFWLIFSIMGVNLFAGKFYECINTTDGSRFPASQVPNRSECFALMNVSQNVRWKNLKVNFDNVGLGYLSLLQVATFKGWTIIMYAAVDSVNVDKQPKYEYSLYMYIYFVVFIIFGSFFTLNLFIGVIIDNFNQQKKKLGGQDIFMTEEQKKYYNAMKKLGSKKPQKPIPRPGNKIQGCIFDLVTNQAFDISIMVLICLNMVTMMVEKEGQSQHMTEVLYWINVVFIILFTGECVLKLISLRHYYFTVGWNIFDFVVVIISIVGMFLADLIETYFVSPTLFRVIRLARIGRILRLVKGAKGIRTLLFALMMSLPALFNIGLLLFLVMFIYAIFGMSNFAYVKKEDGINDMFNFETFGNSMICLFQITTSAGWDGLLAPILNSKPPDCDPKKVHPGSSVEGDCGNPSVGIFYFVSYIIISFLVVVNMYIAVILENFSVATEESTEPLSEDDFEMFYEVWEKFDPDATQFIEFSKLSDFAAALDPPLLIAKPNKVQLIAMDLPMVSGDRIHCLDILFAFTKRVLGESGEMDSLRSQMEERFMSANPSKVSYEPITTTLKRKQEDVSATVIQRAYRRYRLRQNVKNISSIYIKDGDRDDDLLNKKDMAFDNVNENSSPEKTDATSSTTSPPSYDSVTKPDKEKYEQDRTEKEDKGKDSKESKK

Compound | IC50 [1] [nM] | IC50 [2] [nM]
CN(C)[C@H]1C[C@@H](c2cccc(C(F)(F)F)c2)CC[C@@H]1Nc1ccc(S(=O)(=O)Nc2ccncn2)cn1 (racemic) [Example 2, 6-(((1S,2S,4S)-2-(Dimethylamino)-4-(3-(trifluoromethyl)phenyl)cyclohexyl)amino)-N-(pyrimidin-4-yl)pyridine-3-sulfonamide] | 9.17 | 0.427
5-Chloro-6-(((1S,2S,4S)-4-(3-chlorophenyl)-2-(dimethylamino)cyclohexyl)oxy)-N-(pyrimidin-4-yl)pyridine-3-sulfonamide [Example 27] | 7.12 | 0.574
6-(((1S,2S,4S)-4-(3-(1,1-difluoroethyl)phenyl)-2-(dimethylamino)cyclohexyl)oxy)-2-methyl-N-(pyrimidin-4-yl)pyridine-3-sulfonamide [Example 41] | 1.9 | 1.95
Cc1nc(O[C@H]2CC[C@H](c3cccc(C(F)(F)F)n3)C[C@@H]2N(C)C)ccc1S(=O)(=O)Nc1ccncn1 [Example 51, 6-(((1S,2S,4S)-2-(dimethylamino)-4-(6-(trifluoromethyl)pyridin-2-yl)cyclohexyl)oxy)-2-methyl-N-(pyrimidin-4-yl)pyridine-3-sulfonamide] | 0.985 | 4.59
Cc1nc(O[C@H]2CC[C@H](c3ccc(Cl)c(C(F)(F)F)n3)C[C@@H]2N(C)C)ccc1S(=O)(=O)Nc1ccncn1 [Example 62, 6-(((1S,2S,4S)-4-(5-chloro-6-(trifluoromethyl)pyridin-2-yl)-2-(dimethylamino)-cyclohexyl)oxy)-2-methyl-N-(pyrimidin-4-yl)pyridine-3-sulfonamide] | – | 1.53
O=S(=O)(Nc1ccncn1)c1ccc(O[C@H]2CC[C@H](c3cccc(C(F)(F)F)c3)C[C@@H]2N2CCCC2)nc1 [Example 17, N-(pyrimidin-4-yl)-6-(((1S,2S,4S)-2-(pyrrolidin-1-yl)-4-(3-(trifluoromethyl)phenyl)cyclohexyl)oxy)-pyridine-3-sulfonamide formate] | – | 0.602
CN(C)[C@H]1C[C@@H](c2ccc(Cl)c(C(F)(F)F)c2)CC[C@@H]1Oc1ccc(S(=O)(=O)Nc2ccncn2)cn1 [Example 12, 6-(((1S,2S,4S)-4-(4-chloro-3-(trifluoromethyl)phenyl)-2-(dimethylamino)cyclohexyl)oxy)-N-(pyrimidin-4-yl)pyridine-3-sulfonamide formate] | – | 0.66
CN(C)[C@H]1C[C@@H](c2cccc(C(F)(F)F)c2)CC[C@@H]1Oc1ncc(S(=O)(=O)Nc2ccncn2)cc1Cl [Example 3, 5-Chloro-6-(((1S,2S,4S)-2-(dimethylamino)-4-(3-(trifluoromethyl)phenyl)cyclohexyl)oxy)-N-(pyrimidin-4-yl)pyridine-3-sulfonamide] | – | 2.21
CN(C)[C@H]1C[C@@H](c2ccc(Cl)c(C(F)(F)F)c2)CC[C@@H]1Nc1ccc(S(=O)(=O)Nc2ccncn2)cn1 [Example 11, 6-(((1S,2S,4S)-4-(4-chloro-3-(trifluoromethyl)phenyl)-2-(dimethylamino)cyclohexyl)amino)-N-(pyrimidin-4-yl)pyridine-3-sulfonamide formate] | – | 1.07
Cc1nc(O[C@H]2CC[C@H](c3cccc(Cl)c3)C[C@@H]2N(C)C)ccc1S(=O)(=O)Nc1ccncn1 [Example 57, 6-(((1S,2S,4S)-4-(3-chloro-phenyl)-2-(dimethylamino)-cyclohexyl)oxy)-2-methyl-N-(pyrimidin-4-yl)pyridine-3-sulfonamide] | – | 0.919
O=S(=O)(Nc1ccncn1)c1cnc(O[C@H]2CC[C@H](c3cccc(C(F)(F)F)n3)C[C@@H]2N2CCCC2)c(Cl)c1 [Example 40, 5-chloro-N-(pyrimidin-4-yl)-6-(((1S,2S,4S)-2-(pyrrolidin-1-yl)-4-(6-(trifluoromethyl)pyridin-2-yl)cyclohexyl)oxy)pyridine-3-sulfonamide] | – | 3.86
CN(C)[C@H]1C[C@@H](c2cccc(C(F)(F)F)c2)CC[C@@H]1Oc1cc(Cl)c(S(=O)(=O)Nc2ccncn2)cn1 [Example 31, 4-Chloro-6-(((1S,2S,4S)-2-(dimethylamino)-4-(3-(trifluoromethyl)phenyl)cyclohexyl)oxy)-N-(pyrimidin-4-yl)pyridine-3-sulfonamide] | – | 10
Cc1nc(O[C@H]2CC[C@H](c3cccc(OC(F)(F)F)c3)C[C@@H]2N2CCCC2)ccc1S(=O)(=O)Nc1ccncn1 [Example 30, 2-Methyl-N-(pyrimidin-4-yl)-6-(((1S,2S,4S)-2-(pyrrolidin-1-yl)-4-(3-(trifluoromethoxy)phenyl)-cyclohexyl)oxy)pyridine-3-sulfonamide] | – | 1.07
CN(C)[C@H]1C[C@@H](c2cccc(OC(F)(F)F)c2)CC[C@@H]1Oc1ncc(S(=O)(=O)Nc2ccncn2)cc1Cl [Example 13, 5-chloro-6-(((1S,2S,4S)-2-(dimethylamino)-4-(3-(trifluoromethoxy)phenyl)cyclohexyl)oxy)-N-(pyrimidin-4-yl)pyridine-3-sulfonamide] | – | 1.55
CN(C)[C@H]1C[C@@H](c2cccc(C(F)(F)F)c2)CC[C@@H]1Oc1ncc(S(=O)(=O)Nc2ccncn2)cc1C(F)(F)F [Example 14, 6-(((1S,2S,4S)-2-(dimethylamino)-4-(3-(trifluoromethyl)phenyl)cyclohexyl)oxy)-N-(pyrimidin-4-yl)-5-(trifluoromethyl)pyridine-3-sulfonamide] | – | 5.08
Cc1nc(O[C@H]2CC[C@H](c3cccc(C(F)(F)F)c3)C[C@@H]2N2CCCC2)ccc1S(=O)(=O)Nc1ccncn1 [Example 29, 2-Methyl-N-(pyrimidin-4-yl)-6-(((1S,2S,4S)-2-(pyrrolidin-1-yl)-4-(3-(trifluoromethyl)phenyl)-cyclohexyl)oxy)pyridine-3-sulfonamide] | – | 5.62
